Results taken from PMC8406298, “Discovery of Fungus-Specific Targets and Inhibitors Using Chemical Phenotyping of Pathogenic Spore Germination” (mBio, 2021).

Assays:
[1] = test system: Cryptococcus yeast (CHY3833 and CHY3836); test: Yeast replication secondary screen (OD600); format: cell-based, Cryptococcus neoformans serotype D (deneoformans); conditions: 10 μM, 12 h at 30°C
Description: (ii) Yeast replication. CHY3833 and CHY3836 were each grown in YPD liquid overnight at 30°C to saturation and then resuspended in 0.5× YPD at an OD600 of 0.005. Strains were aliquoted into 384-well plates with inhibitors and grown for 12 h at 30°C at […] before OD600 readings were taken. Compounds that caused a >10% decrease in growth were considered yeast growth inhibitors.

[2] = test system: normal human dermal fibroblasts (NHDF) cells; test: Fibroblast cytotoxicity (CellTiter-Glo); format: cell-based; conditions: 10 µM
Procedure, shortened: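 Normal human dermal fibroblasts, 1 × 10^3 per well, exposed to compounds at 10 μM for 72 h at 37°C. Viability read as ATP-dependent CellTiter-Glo luminescence. Dose-response runs titrated compounds from 80 μM to 0.5 μM in duplicate.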

In the case of NC(=O)c1ccsc1NC(=O)/C=C/c1ccccc1 [compound 6104220], the “Yeast Inhibition: % Inhibition” value [1] is reported as 51.7% and the “Cytotoxicity: Relative Cell Viability (% of Negative Control)” value [2] is reported as 50.8 % of Negative Control.
C(=C\c1cccs1)/c1nnc(-c2cccs2)o1 [compound 6263817] was tested, and the “Yeast Inhibition: % Inhibition” value [1] was 49.0% and the “Cytotoxicity: Relative Cell Viability (% of Negative Control)” value [2] was 84.3 % of Negative Control.
With COc1ccc(Nc2nc3ccc(OC)cc3s2)cc1 [compound 7086348] the “Yeast Inhibition: % Inhibition” value [1] was 31.0% and the “Cytotoxicity: Relative Cell Viability (% of Negative Control)” value [2] was 91.3 % of Negative Control.
In the case of O=S(=O)(NCc1csc(-c2ccccc2)n1)c1cc(Cl)ccc1Cl [compound 7119035], the “Yeast Inhibition: % Inhibition” value [1] is reported as 38.8% and the “Cytotoxicity: Relative Cell Viability (% of Negative Control)” value [2] is reported as 89.2 % of Negative Control.
With CC(=O)c1cccc(NC(=O)c2cc(Cl)sc2Cl)c1 [compound 7120750] the “Yeast Inhibition: % Inhibition” value [1] was 72.7% and the “Cytotoxicity: Relative Cell Viability (% of Negative Control)” value [2] was 79.8 % of Negative Control.
In the case of NC(=O)c1ccsc1NC(=O)c1ccc(Cl)cc1Cl [compound 7167022], the “Yeast Inhibition: % Inhibition” value [1] is reported as 52.4% and the “Cytotoxicity: Relative Cell Viability (% of Negative Control)” value [2] is reported as 83.5 % of Negative Control.
With O=C(COc1coc(CN2CCc3ccccc32)cc1=O)OCc1ccccc1 [compound 7178481] the “Yeast Inhibition: % Inhibition” value [1] was 15.8% and the “Cytotoxicity: Relative Cell Viability (% of Negative Control)” value [2] was 88.3 % of Negative Control.
In the case of O=C(/C=C/c1cccc(F)c1)c1ccc[nH]1 [compound 7185492], the “Yeast Inhibition: % Inhibition” value [1] is reported as 99.0% and the “Cytotoxicity: Relative Cell Viability (% of Negative Control)” value [2] is reported as 40.0 % of Negative Control.
For O=C(/C=C/c1cccc(F)c1)c1cccs1 [compound 7185494], the “Yeast Inhibition: % Inhibition” value [1] was 101.7% and the “Cytotoxicity: Relative Cell Viability (% of Negative Control)” value [2] was 45.7 % of Negative Control.
O=C(Nc1nc2c(Br)cccc2s1)C1CC1 [compound 7202929] was tested, and the “Yeast Inhibition: % Inhibition” value [1] was 16.5% and the “Cytotoxicity: Relative Cell Viability (% of Negative Control)” value [2] was 66.1 % of Negative Control.
In the case of CCCC(=O)N1CCN(c2nc3c(C)c(Cl)ccc3s2)CC1 [compound 7294823], the “Yeast Inhibition: % Inhibition” value [1] is reported as 31.5% and the “Cytotoxicity: Relative Cell Viability (% of Negative Control)” value [2] is reported as 104.9 % of Negative Control.
CCCc1cc(C(=O)OC)c(N2C(=O)C=CC2=O)s1 [compound 7456205] was tested, and the “Yeast Inhibition: % Inhibition” value [1] was 101.6% and the “Cytotoxicity: Relative Cell Viability (% of Negative Control)” value [2] was 4.1 % of Negative Control.
c1ccc(Cn2nnc3c(Sc4ncco4)ncnc32)cc1 [compound 7471335] was tested, and the “Yeast Inhibition: % Inhibition” value [1] was 101.6% and the “Cytotoxicity: Relative Cell Viability (% of Negative Control)” value [2] was 4.1 % of Negative Control.
Cc1nc(-c2ccc(F)cc2)sc1CCNC(=O)c1ccc(Br)o1 [compound 7503016] was tested, and the “Yeast Inhibition: % Inhibition” value [1] was 20.4% and the “Cytotoxicity: Relative Cell Viability (% of Negative Control)” value [2] was 97.2 % of Negative Control.
In the case of Cc1ccc(NS(=O)(=O)N2CCCCCC2)cc1Cl [compound 8720355], the “Yeast Inhibition: % Inhibition” value [1] is reported as 45.8% and the “Cytotoxicity: Relative Cell Viability (% of Negative Control)” value [2] is reported as 71.9 % of Negative Control.
CCc1ccccc1NC(=O)c1cc(C)oc1C [compound 8839503] was tested, and the “Yeast Inhibition: % Inhibition” value [1] was 37.3% and the “Cytotoxicity: Relative Cell Viability (% of Negative Control)” value [2] was 103.5 % of Negative Control.
With COc1ccc(CCNC(=O)c2c(O)nc3ccccn3c2=O)cc1OC [compound 16010290] the “Yeast Inhibition: % Inhibition” value [1] was -0.7% and the “Cytotoxicity: Relative Cell Viability (% of Negative Control)” value [2] was 103.5 % of Negative Control.
O=C(C1COc2ccccc2O1)N1CCN(c2nc3c(F)cccc3s2)CC1 (centres unmarked) [compound 16032794] was tested, and the “Yeast Inhibition: % Inhibition” value [1] was 5.2% and the “Cytotoxicity: Relative Cell Viability (% of Negative Control)” value [2] was 115.2 % of Negative Control.
For CCOC(=O)c1ccc(N2C(=O)CC(SCC(=O)Nc3ccc(S(N)(=O)=O)cc3)C2=O)cc1 (centres unmarked) [compound 16187117], the “Yeast Inhibition: % Inhibition” value [1] was 83.7% and the “Cytotoxicity: Relative Cell Viability (% of Negative Control)” value [2] was 118.0 % of Negative Control.
In the case of O=C1NC(=S)S/C1=C\c1ccc(OC(F)(F)F)cc1 [compound 16433415], the “Yeast Inhibition: % Inhibition” value [1] is reported as 82.9% and the “Cytotoxicity: Relative Cell Viability (% of Negative Control)” value [2] is reported as 79.7 % of Negative Control.
OC(COCC12CC3CC(CC(C3)C1)C2)CN1CCc2ccccc2C1 (centres unmarked) [compound 16456321] was tested, and the “Yeast Inhibition: % Inhibition” value [1] was 84.7% and the “Cytotoxicity: Relative Cell Viability (% of Negative Control)” value [2] was 12.1 % of Negative Control.
With OC(COc1ccc(C23CC4CC(CC(C4)C2)C3)cc1)C[N+]1(Cc2ccccc2)CCOCC1 (centres unmarked) [compound 16456368] the “Yeast Inhibition: % Inhibition” value [1] was 101.6% and the “Cytotoxicity: Relative Cell Viability (% of Negative Control)” value [2] was 2.8 % of Negative Control.
Cc1ccc(-c2nnc(Cn3cnc4ccccc43)o2)cc1 [compound 16456942] was tested, and the “Yeast Inhibition: % Inhibition” value [1] was 57.7% and the “Cytotoxicity: Relative Cell Viability (% of Negative Control)” value [2] was 69.7 % of Negative Control.
For O=C(Nc1nc2ccccc2s1)C1CCCCN1S(=O)(=O)c1ccc(Cl)s1 (centres unmarked) [compound 16801811], the “Yeast Inhibition: % Inhibition” value [1] was 24.0% and the “Cytotoxicity: Relative Cell Viability (% of Negative Control)” value [2] was 86.9 % of Negative Control.
Cc1ccc(OCCOCC(O)CN2CCN(c3ccc(F)cc3)CC2)cc1C (centres unmarked) [compound 16804490] was tested, and the “Yeast Inhibition: % Inhibition” value [1] was 17.9% and the “Cytotoxicity: Relative Cell Viability (% of Negative Control)” value [2] was 94.5 % of Negative Control.
O=C1C(NS(=O)(=O)c2ccccc2)=C/C(=N\S(=O)(=O)c2ccc(F)cc2)c2ccccc21 [compound 16805904] was tested, and the “Yeast Inhibition: % Inhibition” value [1] was -24.2% and the “Cytotoxicity: Relative Cell Viability (% of Negative Control)” value [2] was 89.3 % of Negative Control.
For O=C(COc1ccc2ccccc2c1)NCC1COC2(CCCC2)O1 (centres unmarked) [compound 16823609], the “Yeast Inhibition: % Inhibition” value [1] was 2.4% and the “Cytotoxicity: Relative Cell Viability (% of Negative Control)” value [2] was 99.9 % of Negative Control.
CSC1=Nc2cccnc2Nc2ccccc21 [compound 16824016] was tested, and the “Yeast Inhibition: % Inhibition” value [1] was 20.9% and the “Cytotoxicity: Relative Cell Viability (% of Negative Control)” value [2] was 94.9 % of Negative Control.
Cc1cccc(NC(=O)CC2SC(=O)N(c3ccc(F)cc3)C2=O)c1 (centres unmarked) [compound 16876071] was tested, and the “Yeast Inhibition: % Inhibition” value [1] was 58.1% and the “Cytotoxicity: Relative Cell Viability (% of Negative Control)” value [2] was 86.9 % of Negative Control.
For COC(=O)Nc1nc(CC(=O)N2CCN(c3cccc(Cl)c3Cl)CC2)cs1 [compound 16883840], the “Yeast Inhibition: % Inhibition” value [1] was 3.5% and the “Cytotoxicity: Relative Cell Viability (% of Negative Control)” value [2] was 62.6 % of Negative Control.
With COc1ccc2nc(NS(=O)(=O)c3ccc(Cl)s3)sc2c1 [compound 16934153] the “Yeast Inhibition: % Inhibition” value [1] was -7.4% and the “Cytotoxicity: Relative Cell Viability (% of Negative Control)” value [2] was 76.4 % of Negative Control.
With O=S(=O)(Nc1nc2c(Cl)cccc2s1)c1ccc(Cl)s1 [compound 16934160] the “Yeast Inhibition: % Inhibition” value [1] was -6.1% and the “Cytotoxicity: Relative Cell Viability (% of Negative Control)” value [2] was 75.3 % of Negative Control.
O=S(=O)(Nc1nc2c(F)cccc2s1)c1ccc(Cl)s1 [compound 16934170] was tested, and the “Yeast Inhibition: % Inhibition” value [1] was -6.6% and the “Cytotoxicity: Relative Cell Viability (% of Negative Control)” value [2] was 77.5 % of Negative Control.
For O=C(Cn1c(=O)n(Cc2cccnc2)c(=O)c2ncccc21)Nc1ccc2c(c1)OCO2 [compound 16951905], the “Yeast Inhibition: % Inhibition” value [1] was -5.5% and the “Cytotoxicity: Relative Cell Viability (% of Negative Control)” value [2] was 101.3 % of Negative Control.
O=C(Cn1c(=O)n(Cc2ccncc2)c(=O)c2ncccc21)Nc1ccc(F)c(Cl)c1 [compound 16951979] was tested, and the “Yeast Inhibition: % Inhibition” value [1] was 27.1% and the “Cytotoxicity: Relative Cell Viability (% of Negative Control)” value [2] was 102.8 % of Negative Control.
In the case of Cc1ccccc1N=c1scc(-c2ccc(F)cc2)n1CCO [compound 16955786], the “Yeast Inhibition: % Inhibition” value [1] is reported as 21.9% and the “Cytotoxicity: Relative Cell Viability (% of Negative Control)” value [2] is reported as 85.9 % of Negative Control.
With Fc1ccc(Nc2ccnc3ccc(Cl)cc23)c(F)c1 [compound 17016619] the “Yeast Inhibition: % Inhibition” value [1] was 34.0% and the “Cytotoxicity: Relative Cell Viability (% of Negative Control)” value [2] was 67.9 % of Negative Control.
In the case of CCn1c(SC/C=C\c2ccccc2)nnc1-c1ccncc1 [compound 18558862], the “Yeast Inhibition: % Inhibition” value [1] is reported as 36.7% and the “Cytotoxicity: Relative Cell Viability (% of Negative Control)” value [2] is reported as 88.2 % of Negative Control.
COC(=O)c1ccc(Cn2c(S(C)(=O)=O)nc3ccccc32)cc1 [compound 18576765] was tested, and the “Yeast Inhibition: % Inhibition” value [1] was 3.8% and the “Cytotoxicity: Relative Cell Viability (% of Negative Control)” value [2] was 88.5 % of Negative Control.
With O=C(CCSc1ccc(Cl)cc1)Nc1ccc2scnc2c1 [compound 18585549] the “Yeast Inhibition: % Inhibition” value [1] was 29.1% and the “Cytotoxicity: Relative Cell Viability (% of Negative Control)” value [2] was 96.1 % of Negative Control.
With COc1ccc(SCCCC(=O)Nc2ncnc3sccc23)cc1 [compound 18585630] the “Yeast Inhibition: % Inhibition” value [1] was 15.2% and the “Cytotoxicity: Relative Cell Viability (% of Negative Control)” value [2] was 104.7 % of Negative Control.
In the case of CC1CNc2ccccc2N(Cc2ccc(Br)cc2)C1=O (centres unmarked) [compound 20896311], the “Yeast Inhibition: % Inhibition” value [1] is reported as 5.6% and the “Cytotoxicity: Relative Cell Viability (% of Negative Control)” value [2] is reported as 94.5 % of Negative Control.
Cc1oc2cc(OCCN3CCN(c4ccccc4F)CC3)ccc2c(=O)c1-c1ccccc1 [compound 24280258] was tested, and the “Yeast Inhibition: % Inhibition” value [1] was 7.5% and the “Cytotoxicity: Relative Cell Viability (% of Negative Control)” value [2] was 103.4 % of Negative Control.
